Measured values reported in US12084472B2 (Ardelyx, Inc., priority 2015, dated 2024).
Marks after values point to notes of the source that are not given here.

Columns and labels:
[1] = tested on: Western diet (WD)-fed mice; test: Mouse model of NAFLD and mild diabetes, Western diet (WD)-fed mice: glucose, insulin, liver lipids, GLP levels; assay type: in vivo, C57BL/6 male mice
Procedure: Seven week old C57BL/6 male mice were housed 5/cage. Two cages of mice were put on normal chow (Harlan Teklad 2018), and the remaining cages of mice were put on WD (Harlan Teklad, TD.88137, […]/0.2% cholesterol) to induce NAFLD. After 10 weeks, mice were weighed and fasted for 4 h. Blood was collected to measure fasting glucose levels, processed to plasma for measurement of insulin, triglycerides and total cholesterol. This process was repeated on Day 29 of treatment. Based on body weight and fasted glucose and insulin levels, mice were divided into 5 treatment groups (n=10/group), Table 20. […] Mice were weighed twice weekly throughout the study. On the last day of the study (Day 30, 8 hours after food removal), mice were euthanized. Blood was collected in tubes with inhibitors to block DPP-4 activity and processed to plasma for measurement of liver enzymes and GLP levels using an Ace Alera clinical analyzer and the Multi-Array Assay System from Meso Scale Discovery, respectively. The entire liver was collected, weighed, and a sample was taken and weighed for measurement of triglycerides and total cholesterol.
Data for each group are presented as mean±SEM. Statistical analyses were performed using one-way ANOVA followed by Holm-Sidak's multiple comparisons test. For GLP levels, <statistical significance compared to vehicle (WD) is marked as *, P<0.05; **, P<0.01, ***, P<0.001, and ****, P<0.0001; of linagliptin (WD) versus I-389 alone (WD) or linaglptin+I-389 (WD) is marked as †, P<0.05; ††, P<0.01, of †††, P<0.001, and ††††, P<0.0001; and of I-389 (WD) versus linagliptin (WD)+I-389 (WD) is marked as ^, P<0.05; ^ ^P<0.01, ^ ^^P, P<0.001, and ^ ^^^, P<0.0001. For the remaining parameters, statistical significance compared to vehicle (WD) is marked as *, P<0.05; **, P<0.01, ***, P<0.001, and ****, P<0.0001.

human TGR5 = target: T1, human TGR5 (Homo sapiens, UniProt Q8TDU6); test: Cell-based TGR5 assay (cAMP generation, HTRF); settings: HEK293 cells stably transfected with human TGR5; cAMP by HTRF; 30 minutes at 37° C.; read-out: pEC50 Human TGR5 (converted)
T1 construct: expressed in transfected cells; host or cells: HEK293
T1 sequence (Q8TDU6 1-330): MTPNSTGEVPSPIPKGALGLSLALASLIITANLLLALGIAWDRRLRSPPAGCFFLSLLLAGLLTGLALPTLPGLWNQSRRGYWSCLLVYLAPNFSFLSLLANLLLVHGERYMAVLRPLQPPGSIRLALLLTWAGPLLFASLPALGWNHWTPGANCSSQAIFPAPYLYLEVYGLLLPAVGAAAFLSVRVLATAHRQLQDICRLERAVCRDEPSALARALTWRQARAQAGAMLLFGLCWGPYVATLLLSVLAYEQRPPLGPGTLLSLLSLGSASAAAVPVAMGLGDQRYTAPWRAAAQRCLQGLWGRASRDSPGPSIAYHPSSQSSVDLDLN
How it was run: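 Read-out was HTRF detection of cAMP, converted to concentration via a standard curve and fitted (3-parameter logistic) for pEC50 and maximal response. Agonist stimulation used HEK293 cells stably transfected with human TGR5, incubated 30 min at 37° C in IBMX-containing buffer at 0.05 nM to 10 μM compound.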

small intestine transit = test: Intestinal motility independent of gastric emptying (carmine red dye front); assay type: in vivo, C57BL/6 male mice; settings: I-389 30 mg/kg PO; dye infused via duodenal catheter 1 h later; 15 min; vs vehicle; FIG. 6
Procedure: Seven-eight week old C57BL/6 male mice were acclimated for four days. Mice were then divided into 2 groups and fasted for 2-1/2 h, followed by a PO dose (10 mL/kg) of vehicle (10% 2-hydroxypropyl-β-cyclodextrin [HPCD] in 10 mM PBS containing 0.1% tween 80; HPCD/tween 80) or I-389 30 mg/kg. One hour later, carmine red (6% in sterile water; 100 μL/mouse) dye was infused via the duodenal catheter and mice were euthanised fifteen min after that. The entire length of the small intestine and the distance from the stomach to the dye front in the small intestine was measured and used to calculate the percentage of the small intestine the dye front had travelled during the 15 min timeframe.

EC50 (human TGR5): < 100 nM
Structure (SMILES): CN(CCCCNC(=O)N[C@@H](CO)[C@@H](O)[C@H](O)[C@H](O)CO)S(=O)(=O)c1ccc(Cl)c(COC2(c3cnccc3-c3ccccc3OC3CC3)CC2)c1 [Compound I-389, 1-(4-[N-methyl[4-chloro-3-([1-[4-(2-cyclopropoxyphenyl)pyridin-3-yl]cyclopropoxy]methyl)benzene]sulfonamido]butyl)-3-[(2S,3R,4S,5R)-1,3,4,5,6-pentahydroxyhexan-2-yl]urea]
active GLP-1 levels / release ([1]; WD-fed mice, Day 30 plasma, I-389 30 mg/kg, linagliptin 10 mg/kg, FIG. 14): effective at inducing active GLP-1 release
total GLP-1 levels ([1]; WD-fed mice, Day 30 plasma, I-389 30 mg/kg, linagliptin 10 mg/kg, FIG. 15): highly elevated
body weight ([1]; WD-fed mice, data not shown): did not significantly affect
liver total cholesterol levels (in words) ([1]; WD-fed mice, vs vehicle (WD)): lowered
liver triglycerides (in words) ([1]; WD-fed mice, vs vehicle (WD)): lowered
Liver weight ([1]; Western diet, liraglutide 0.4 mg/kg BID SQ, I-389 30 mg/kg BID PO, linagliptin 10 mg/kg QD PO, mean±SEM, vehicle WD 2.13 ± 0.14): 1.77 ± 0.09* g
4-h fasted insulin ([1]; Western diet, liraglutide 0.4 mg/kg BID SQ, I-389 30 mg/kg BID PO, linagliptin 10 mg/kg QD PO, mean±SEM, vehicle WD 2.3 ± 0.3): 1.6 ± 0.2* ng/mL
Hepatic cholesterol ([1]; Western diet, liraglutide 0.4 mg/kg BID SQ, I-389 30 mg/kg BID PO, linagliptin 10 mg/kg QD PO, mean±SEM, vehicle WD 8.56 ± 0.25): 7.24 ± 0.41** mg/g
Hepatic triglycerides ([1]; Western diet, liraglutide 0.4 mg/kg BID SQ, I-389 30 mg/kg BID PO, linagliptin 10 mg/kg QD PO, mean±SEM, vehicle WD 145.40 ± 14.80): 87.82 ± 13.77*** mg/g
4-h fasted glucose ([1]; Western diet, liraglutide 0.4 mg/kg BID SQ, I-389 30 mg/kg BID PO, linagliptin 10 mg/kg QD PO, mean±SEM, vehicle WD 239 ± 13): 178 ± 7** mg/dL
percentage the carmine red dye front travelled in the small intestine (small intestine transit): statistically significant increase
